Patent publication US11793208B2, “Antimicrobial treatment of animal carcasses and food products” (EVONIK OPERATIONS GMBH, priority 2017, dated 2023)
Values belong to the molecule of their own block, whether it stands above or below them.

Assays:
[1] = pH of tap water containing acids and alkaline modifiers, before and after contact with chicken breast; assay type: physicochemical; conditions: for pH after 1 hour: 1 hour at 4° C. with chicken breast; for pH initial: tap water 4° C., before addition of poultry
Procedure: Organic acids were added to plastic containers containing 5.0 L of tap water at 4° C. The alkaline modifiers, NaOH, Na2CO3, Na2CO3.1.5H2O2, Na3PO4, were added to the solution in the plastic container in an amount sufficient to bring pH to about 7-9 depending upon the pKa of the organic acid. Then, 5 pieces of chicken breast weighing about 200 gram each were added to each container. The solution was then incubated for one hour at 4° C., with periodic stirring. The pH was measured immediately before the addition of the poultry and then after the 1 hour incubation at 4° C.

[2] = tested on: Salmonella enterica ATCC 14028; assay: Salmonella suspension testing method; assay type: cell-based; conditions: for Average Log10 reduction: 60 min treatment, 5% organic load; for kill of Salmonella: organic acid with addition of percarbonate, relatively high pH
Procedure: The effect of organic acids and alkaline modifiers on microbial viability was assayed using a Salmonella suspension testing method as described below. […] A 1:5 dilution of organism was prepared in Butterfield's buffer. This dilution was added in equal parts to sterile fetal bovine serum in order to produce a working inoculum containing a 50% organic load. […] Then, a 1 mL aliquot of working inoculum was added to the test solution and vortexed briefly to mix. A 1 mL aliquot was removed from the mixture at 1, 30, and 60 minutes following inoculation, and immediately added to a 9 mL volume of Letheen neutralizing broth. This broth was then vortex mixed, diluted serially into Butterfield's buffer, and the dilutions plated on 3[…] Aerobic Count Plates. The plates were incubated for 24-48 hours at 35° C., and then counted manually. Log 10 calculations were performed to obtain the Log 10 CFU/mL of the solutions at each time point.

[3] = Concentration of PAA and H2O2 in the presence of alkaline modifiers; assay type: physicochemical; conditions: for effect of alkaline modifier on concentration of both PAA and hydrogen peroxide: PAA solution with the alkaline modifier, 1 hour at 4° C.; for PAA, ppm Initial / H2O2, ppm Initial: immediately after preparation; for H2O2, ppm in 1 hour / PAA, ppm in 1 hour: after 1 hour at 4° C.
Enterobacteriaceae = assay: Microbial load of rinses from treated poultry offal: Enterobacteriaceae count; assay type: cell-based; conditions: 8-10 seconds
Procedure: (§1) For offal treatments, mixtures of organic acids and peroxyacids were prepared by weighing the components and dissolving them in water to reach the desired concentration. Peracetic acid (PAA) solutions were prepared by diluting VigorOx® (PeroxyChem LLC) with tap water to obtain the target concentration.
(§2) The pH of the aseptic compositions was adjusted using a 25% aqueous solution of NaOH, solid sodium carbonate, or sodium bicarbonate. The amount of active oxygen was confirmed by titration on an autotitrator and by using Chemetrics test kits K-7913F and K-5543.
(§3) Fresh poultry livers and gizzards, and lamb livers and kidneys were purchased untreated and fresh (not frozen) from local suppliers. All offal was kept refrigerated before testing.
(§4) Poultry offal was collected into a single large plastic bag. A gloved hand was used to remove either 6 whole, bi-lobed livers or 12 gizzards and place them in 350 mL of either water, an 840 ppm PAA solution, or an 840 ppm PAA solution that had been adjusted to a pH of 10.2 with sodium hydroxide and used within 5 minutes of pH adjustment. The samples were incubated in the solutions for 8-10 seconds. After treatment, a freshly gloved hand was used to remove 2 livers (or 4 gizzards) into a small plastic strainer. The treated samples were allowed to drain for 30 to 60 seconds to remove excess moisture. Each set of 2 livers (or 4 gizzards) was then placed into 100 mL peptone buffer and rinsed in the peptone for 30 seconds. A few milliliters of rinsate were removed by transfer pipette and kept on ice for dilution and plating. The plates were incubated for 24 to 48 hours at 35° C. and counted manually to determine the Aerobic Plate Count (APC) and the Enterobacteriaceae count (EBC). The color of the treated samples was noted by visual inspection.

[4] = tested on: Aerobic Plate Count (APC); assay: Microbial reduction after PAA treatment of chicken livers: Aerobic Plate Count; assay type: cell-based; conditions: PAA 1000 ppm
Procedure: (§5) Six chicken livers were added to 500 mL of peracetic acid solution, and incubated room temperature for 5, 15, or 30 seconds. Then the livers were removed and quickly added individually to 100 mL Buffered Peptone Water in a sterile cup, 1 liver per cup. Cups were manually shaken for 30 seconds and the liquid was sampled for plating. Sample rinses were serially diluted using Butterfield's buffer and plated on Aerobic Plate Count (APC) and Escherichia coli Coliform (ECC) plates. The plates were incubated for 24-48 hours at a temperature of 35° C., and then counted manually. Log10 calculations were performed to obtain the Log10 CFU/mL of the solutions at each time point.

[5] = tested on: Aerobic Plate Count (APC); assay: Microbial reduction after PAA treatment of lamb livers: Aerobic Plate Count; assay type: cell-based; conditions: PAA 100 ppm
[6] = tested on: Escherichia coli Coliform (ECC); assay: Microbial reduction after PAA treatment of chicken livers: Escherichia coli Coliform plates; assay type: cell-based; conditions: PAA 1000 ppm
Procedure: as §5

[7] = tested on: Aerobic Plate Count (APC); assay: Microbial load of rinses from treated poultry offal: Aerobic Plate Count; assay type: cell-based; conditions: 8-10 seconds
Procedure: as §1, §2, §3, §4

[8] = Citric 2,500 ppm, alkaline modifier Na2CO3•1.5H2O2
[9] = Citric 5,000 ppm, alkaline modifier Na2CO3•1.5H2O2
[10] = Glycolic 250 ppm, alkaline modifier Na2CO3
[11] = Glycolic 250 ppm, alkaline modifier NaOH
[12] = Glycolic 500 ppm, no alkaline modifier
[13] = additive Na5P3O10 125 ppm, initial PAA 10.4 ppm
[14] = additive Na5P3O10 125 ppm, initial PAA 30.1 ppm
[15] = Gizzards, 840 ppm PAA adjusted to pH 10.2 with sodium hydroxide
[16] = Livers, 840 ppm PAA adjusted to pH 10.2 with sodium hydroxide
[17] = alkaline modifier Na2CO3, pH 8.5, treatment time 5 seconds
[18] = alkaline modifier NaHCO3, pH 7.5, treatment time 15 seconds
[19] = alkaline modifier NaHCO3, pH 7.5, treatment time 30 seconds
[20] = alkaline modifier NaOH, pH 7.5, treatment time 5 seconds
[21] = no alkaline modifier, pH 3.1, treatment time 5 seconds
[22] = no alkaline modifier, pH 3.1, treatment time 15 seconds

effect of alkaline modifier on concentration of both PAA and hydrogen peroxide [3]: relatively rapid decrease
PAA, ppm Initial ([3]; additive Na5P3O10 125 ppm, higher PAA level): 30.1 ppm
H2O2, ppm in 1 hour [3, 13]: 1.4 ppm
PAA, ppm in 1 hour [3, 13]: 4.0 ppm
H2O2, ppm Initial [3, 13]: 6.5 ppm
H2O2, ppm in 1 hour [3, 14]: 4.8 ppm
PAA, ppm in 1 hour [3, 14]: 8.6 ppm
H2O2, ppm Initial [3, 14]: 20.1 ppm
PAA, ppm Initial ([3]; additive Na5P3O10 125 ppm, lower PAA level): 10.4 ppm
Compound: O=P(O)(O)OP(=O)(O)OP(=O)(O)O [Na5P3O10, sodium tripolyphosphate, reference compound]

effect of alkaline modifier on concentration of both PAA and hydrogen peroxide [3]: remained relatively stable
H2O2, ppm in 1 hour ([3]; additive NaHCO3 125 ppm): 6.3 ppm
PAA, ppm in 1 hour ([3]; additive NaHCO3 125 ppm): 8.5 ppm
H2O2, ppm Initial ([3]; additive NaHCO3 125 ppm): 6.5 ppm
PAA, ppm Initial ([3]; additive NaHCO3 125 ppm): 10.4 ppm
H2O2, ppm in 1 hour ([3]; additive NaHCO3 250 ppm): 18.9 ppm
PAA, ppm in 1 hour ([3]; additive NaHCO3 250 ppm): 29.6 ppm
H2O2, ppm Initial ([3]; additive NaHCO3 250 ppm): 19.9 ppm
PAA, ppm Initial ([3]; additive NaHCO3 250 ppm): 30.3 ppm
H2O2, ppm in 1 hour ([3]; additive NaHCO3 275 ppm): 11 ppm
PAA, ppm in 1 hour ([3]; additive NaHCO3 275 ppm): 23 ppm
H2O2, ppm Initial ([3]; additive NaHCO3 275 ppm): 11 ppm
PAA, ppm Initial ([3]; additive NaHCO3 275 ppm): 25 ppm
Compound: O=C([O-])O.[Na+] [NaHCO3, sodium bicarbonate]

effect of alkaline modifier on concentration of both PAA and hydrogen peroxide [3]: relatively rapid decrease
H2O2, ppm in 1 hour ([3]; additive NaOH 100 ppm): 4 ppm
PAA, ppm in 1 hour ([3]; additive NaOH 100 ppm): 8 ppm
H2O2, ppm Initial ([3]; additive NaOH 100 ppm): 11 ppm
PAA, ppm Initial ([3]; additive NaOH 100 ppm): 25 ppm
Compound: [Na+].[OH-] [NaOH, sodium hydroxide, reference compound]

Further lines, the molecule ahead of its results:

Compound: O=C(O)CC(O)(CC(=O)O)C(=O)O [Citric, citric acid]
pH after 1 hour [1, 8]: 7.5
pH initial [1, 8]: 7.5
pH after 1 hour [1, 9]: 8.5
pH initial [1, 9]: 8.5
Average Log10 reduction ([2]; Citric 0.5%, alkaline modifier Na2CO3•1.5H2O2, pH 7.5): 7.09
Average Log10 reduction ([2]; Citric 0.5%, no alkaline modifier, pH 2.4): 3.83
kill of Salmonella [2]: virtually complete kill

Compound: O=C(O)CO [Glycolic, glycolic acid]
pH after 1 hour [1, 10]: 6.8
pH initial [1, 10]: 6.7
pH after 1 hour [1, 11]: 7.5
pH initial [1, 11]: 9.0
pH after 1 hour [1, 12]: 4.5
pH initial [1, 12]: 3.6

Compound: CC(=O)OO [PAA, Peracetic acid]
Log EBC (Enterobacteriaceae; [15]): 0.00
Log EBC (Enterobacteriaceae; Gizzards, 840 ppm PAA, pH 3.4): 0.00
Log EBC (Enterobacteriaceae; [16]): 0.00
Log EBC (Enterobacteriaceae; Livers, 840 ppm PAA, pH 3.4): 0.00
APC log10 reduction [4, 17]: 1.1
APC log10 reduction [4, 18]: 1.1
APC log10 reduction [4, 19]: 1.7
APC log10 reduction [4, 20]: 1.1
APC log10 reduction [4, 21]: 0.9
APC log10 reduction [4, 22]: 1.2
APC log10 reduction ([5]; additive Citric acid, 2%, pH 7.5 (sodium carbonate), treatment time 10 minutes): 1.8
APC log10 reduction ([5]; additive Lactic acid, 2%, pH 7.5 (sodium carbonate), treatment time 10 minutes): 1.8
APC log10 reduction ([5]; no additive, pH 4.1, treatment time 10 minutes): 2.2
APC log10 reduction ([5]; no additive, pH 7.5 (adjusted with sodium carbonate), treatment time 10 minutes): 3.0
H2O2, ppm in 1 hour ([3]; no additive (0 ppm)): 11 ppm
PAA, ppm in 1 hour ([3]; no additive (0 ppm)): 24 ppm
H2O2, ppm Initial ([3]; no additive (0 ppm)): 11 ppm
PAA, ppm Initial ([3]; no additive (0 ppm)): 25 ppm
ECC log10 reduction [6, 17]: 1.1
ECC log10 reduction [6, 18]: 3.1
ECC log10 reduction [6, 19]: 3.1
ECC log10 reduction [6, 20]: 0.8
ECC log10 reduction [6, 21]: 0.5
ECC log10 reduction [6, 22]: 1.1
Log APC [7, 15]: 0.85
Log APC ([7]; Gizzards, 840 ppm PAA, pH 3.4): 0.70
Log APC [7, 16]: 0.30
Log APC ([7]; Livers, 840 ppm PAA, pH 3.4): 0.00

Compound: CCC(=O)O [Propionic, propionic acid]
Average Log10 reduction ([2]; Propionic 0.5%, alkaline modifier Na2CO3•1.5H2O2, pH 7.5): 7.07
Average Log10 reduction ([2]; Propionic 0.5%, no alkaline modifier, pH 3.1): 2.15
kill of Salmonella [2]: virtually complete kill
